One assay addresses Estrogen receptor beta (Homo sapiens, UniProt Q92731).
Assay [1] in a line: NIH-3T3 fibroblast cytotoxicity, dose response, cytotoxicity control, cell-based, fluorescence, Alamar Blue, secondary assay (AID 2327).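 Note: NIH-3T3 mouse fibroblasts cultured with fluconazole at 8 µg/mL.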 In kind it is functional.
Assay [2] in a line: C. albicans growth with fluconazole, confirmation, fluorescence, retest (AID 2467). The class given is functional, cell-based.
Assay [3] can be described thus: inhibitors of intracellular T. cruzi replication, confirmation, NIH3T3 host cells, beta-gal luminescence (AID 2044).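 Note: intracellular parasites grown in NIH/3T3 mouse fibroblasts as host cells; luminescent beta-galactosidase reporter signal from transgenic T. cruzi replicating inside host cells; inhibitors lower the luminescence signal.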 The class given is functional, cell-based.
Assay [4] is described as follows: cytotoxicity toward NIH3T3 fibroblasts, dose response, counter-screen, cell-based, ATP luminescence, mouse fibroblasts (AID 2010).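 Note: cells exposed to compound for about 90 hours before reading.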 The class given is functional.
The next assay relates to INS1. The assay can be described thus: beta cell apoptosis inhibitors, cytokine rescue, dose response, luminescence, retest (AID 449756).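 Note: cell death triggered by IL-1 beta plus TNF-alpha plus IFN-gamma mixture; protective hits raise ATP signal compared with cytokine alone wells.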 In kind it is functional, cell-based. As to conditions: Rattus norvegicus.
Assay [5] in a line: cells.
For another assay, the target named is T1, Aminopeptidase N (Plasmodium falciparum FcB1/Columbia, UniProt O96935).
T1 sequence (O96935 whole entry): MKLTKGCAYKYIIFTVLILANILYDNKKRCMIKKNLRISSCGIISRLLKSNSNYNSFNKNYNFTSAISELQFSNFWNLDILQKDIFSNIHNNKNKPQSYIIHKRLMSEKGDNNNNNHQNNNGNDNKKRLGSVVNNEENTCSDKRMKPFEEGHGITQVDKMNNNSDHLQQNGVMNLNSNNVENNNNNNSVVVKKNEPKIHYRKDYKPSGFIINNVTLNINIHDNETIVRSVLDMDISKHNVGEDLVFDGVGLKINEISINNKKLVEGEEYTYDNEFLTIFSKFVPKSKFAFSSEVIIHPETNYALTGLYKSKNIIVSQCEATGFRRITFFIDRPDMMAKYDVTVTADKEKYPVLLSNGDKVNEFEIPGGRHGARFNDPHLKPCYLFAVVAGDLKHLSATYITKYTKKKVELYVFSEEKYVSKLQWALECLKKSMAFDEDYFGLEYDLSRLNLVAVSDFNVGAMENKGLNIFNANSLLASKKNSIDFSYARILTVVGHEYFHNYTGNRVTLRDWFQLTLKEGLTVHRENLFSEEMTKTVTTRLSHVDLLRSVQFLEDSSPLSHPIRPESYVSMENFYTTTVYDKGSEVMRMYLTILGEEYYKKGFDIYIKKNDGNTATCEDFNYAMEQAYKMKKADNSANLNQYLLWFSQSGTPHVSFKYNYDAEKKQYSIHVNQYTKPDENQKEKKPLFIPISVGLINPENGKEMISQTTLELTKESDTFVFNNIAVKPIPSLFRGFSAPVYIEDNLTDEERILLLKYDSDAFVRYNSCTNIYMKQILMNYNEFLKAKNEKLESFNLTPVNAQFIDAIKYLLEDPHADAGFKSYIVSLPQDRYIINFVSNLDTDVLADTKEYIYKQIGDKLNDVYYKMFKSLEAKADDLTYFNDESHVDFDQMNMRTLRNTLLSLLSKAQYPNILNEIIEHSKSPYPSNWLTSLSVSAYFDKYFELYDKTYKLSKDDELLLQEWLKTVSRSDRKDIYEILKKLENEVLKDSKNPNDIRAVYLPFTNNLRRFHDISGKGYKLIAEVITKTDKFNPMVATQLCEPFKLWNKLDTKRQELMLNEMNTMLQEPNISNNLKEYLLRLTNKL
The experiment in a line: P. falciparum M1AAP inhibitors, biochemical, fluorogenic H-Leu-NHMec substrate, 1536-well (AID 1445). Also on record: species or system Plasmodium falciparum 3D7, 3D7.

Assay [6] in a line: cells. In kind it is functional, cell-based.
The nature of assay [7]: cells. In kind it is functional, cell-based. This is another data set of the same source.
The nature of assay [8]: A cytotoxicity screen of small molecule inhibitors of the PhoP region in Salmonella typhi identified in the primary screen. [Related pubchem assays: 1850, 1864, 1985 ]. In kind it is functional.
The target of the next assay is T2, Coagulation factor XII (Homo sapiens, UniProt P00748).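 Note: activated factor XIIa alpha cleaving a fluorogenic AMC peptide substrate; inhibitor potency from loss of enzyme activity.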
T2 sequence (P00748 whole entry): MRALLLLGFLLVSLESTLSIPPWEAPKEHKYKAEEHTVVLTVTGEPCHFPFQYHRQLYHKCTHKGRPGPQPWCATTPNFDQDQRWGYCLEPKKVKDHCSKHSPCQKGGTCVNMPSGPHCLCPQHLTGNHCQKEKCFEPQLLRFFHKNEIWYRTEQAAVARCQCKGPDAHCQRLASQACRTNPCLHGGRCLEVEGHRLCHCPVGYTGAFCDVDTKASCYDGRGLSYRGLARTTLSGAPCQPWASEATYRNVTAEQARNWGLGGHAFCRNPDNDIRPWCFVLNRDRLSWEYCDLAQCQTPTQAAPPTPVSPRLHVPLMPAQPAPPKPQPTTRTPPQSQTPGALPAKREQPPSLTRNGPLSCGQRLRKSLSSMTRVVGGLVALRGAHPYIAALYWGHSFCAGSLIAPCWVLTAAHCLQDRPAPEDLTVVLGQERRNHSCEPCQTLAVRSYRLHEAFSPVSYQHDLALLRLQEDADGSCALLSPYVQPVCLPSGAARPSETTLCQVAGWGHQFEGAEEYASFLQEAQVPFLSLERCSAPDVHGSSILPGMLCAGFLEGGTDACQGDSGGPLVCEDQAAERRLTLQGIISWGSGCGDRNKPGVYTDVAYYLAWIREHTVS
In kind it is functional.

Assay [9] can be described thus: inhibitors of HIV Env-driven cell fusion, dose response, cherry-pick (AID 652057). In kind it is functional, cell-based.
Assay [10] can be described thus: CEM21 lymphoblast cell cytotoxicity, dose response, cytotoxicity control for viral fusion inhibitor project, CellTiter-Glo luminescence, cherry-picked (AID 652042).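 Note: potency for signal decrease meaning cytotoxicity.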 In kind it is functional, cell-based.
A short description of assay [11]: ZM109 Env clade C HIV-1 fusion inhibitors, dose response, HeLa effector, CEM target cells, luciferase, cherry-pick (AID 652058). In kind it is functional, cell-based.
Assay [12] is described as follows: off-target signal loss in HeLa-CEM21 co-culture – HeLa F-luc CTL cells, cherry-picked, counter-screen for HIV-1 Env fusion inhibitor project, dose response (AID 652040).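 Note: potency for signal decrease marking cytotoxic or nonspecific inhibition.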 The class given is functional, cell-based.
Assay [13] in a line: inhibitors of clade B AD8 Env fusion, dose response, cell-based, cherry-pick (AID 652062).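 Note: luciferase signal from cell-cell fusion driven by HIV-1 clade B AD8 Env; potency is for inhibitors of fusion seen as a drop in luminescence.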 The class given is functional.
For the next assay, the target named is T3, Estrogen receptor (Homo sapiens, UniProt P03372).
T3 sequence (P03372 whole entry): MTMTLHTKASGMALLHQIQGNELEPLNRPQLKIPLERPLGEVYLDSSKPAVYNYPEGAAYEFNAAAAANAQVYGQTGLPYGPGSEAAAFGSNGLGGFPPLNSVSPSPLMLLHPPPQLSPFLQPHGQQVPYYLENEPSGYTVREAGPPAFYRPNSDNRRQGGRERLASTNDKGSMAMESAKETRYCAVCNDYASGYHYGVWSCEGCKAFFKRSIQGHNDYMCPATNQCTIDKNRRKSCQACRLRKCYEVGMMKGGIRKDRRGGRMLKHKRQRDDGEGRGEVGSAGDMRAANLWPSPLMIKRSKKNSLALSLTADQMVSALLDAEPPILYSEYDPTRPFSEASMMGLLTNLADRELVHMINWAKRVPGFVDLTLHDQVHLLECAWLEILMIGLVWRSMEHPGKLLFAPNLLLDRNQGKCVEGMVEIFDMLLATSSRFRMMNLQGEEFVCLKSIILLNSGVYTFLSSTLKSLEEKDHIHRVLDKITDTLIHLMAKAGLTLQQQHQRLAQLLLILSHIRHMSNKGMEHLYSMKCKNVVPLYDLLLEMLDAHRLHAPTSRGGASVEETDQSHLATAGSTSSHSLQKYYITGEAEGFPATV

Assay [14] deals with T4, RNA-binding protein pos-1 (Caenorhabditis elegans, UniProt G5EF15).
T4 sequence (G5EF15 whole entry): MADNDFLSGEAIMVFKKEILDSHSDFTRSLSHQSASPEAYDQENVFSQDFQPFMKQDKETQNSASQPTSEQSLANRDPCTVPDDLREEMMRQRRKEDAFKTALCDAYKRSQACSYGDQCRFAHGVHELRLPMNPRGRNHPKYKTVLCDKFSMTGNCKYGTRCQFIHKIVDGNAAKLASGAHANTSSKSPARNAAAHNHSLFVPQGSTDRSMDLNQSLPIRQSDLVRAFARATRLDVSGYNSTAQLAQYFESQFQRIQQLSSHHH
The experiment in a line: inhibitors of POS-1/mex-3 RNA binding, dose response, biochemical, fluorescence polarization (AID 1964).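 Note: purified POS-1 fused to maltose binding protein made in E. coli; potency of compounds blocking POS-1 binding to fluorescent RNA.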

Assay [15] deals with T5, Zinc finger protein mex-5 (Caenorhabditis elegans, UniProt Q9XUB2).
T5 sequence (Q9XUB2 whole entry): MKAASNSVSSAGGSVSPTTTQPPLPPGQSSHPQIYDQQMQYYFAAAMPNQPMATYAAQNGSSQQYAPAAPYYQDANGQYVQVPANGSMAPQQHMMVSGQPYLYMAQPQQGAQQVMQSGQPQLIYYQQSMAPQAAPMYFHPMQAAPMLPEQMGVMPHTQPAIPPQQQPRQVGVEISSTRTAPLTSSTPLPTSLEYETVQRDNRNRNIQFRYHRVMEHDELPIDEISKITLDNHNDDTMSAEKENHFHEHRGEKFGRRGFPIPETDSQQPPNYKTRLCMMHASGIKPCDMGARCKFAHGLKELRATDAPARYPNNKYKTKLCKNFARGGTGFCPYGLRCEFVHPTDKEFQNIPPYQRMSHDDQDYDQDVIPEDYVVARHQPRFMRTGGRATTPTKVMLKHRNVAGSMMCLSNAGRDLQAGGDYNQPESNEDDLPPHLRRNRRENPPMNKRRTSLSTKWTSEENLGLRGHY
The experiment in a line: MEX-5/TCR-2 RNA interaction inhibitors, dose response, biochemical, C. elegans, fluorescence polarization (AID 1960).

The structures appear in SMILES notation. Calls of active or inactive are those of the source.

Chain of Estrogen receptor beta (Q92731 whole entry): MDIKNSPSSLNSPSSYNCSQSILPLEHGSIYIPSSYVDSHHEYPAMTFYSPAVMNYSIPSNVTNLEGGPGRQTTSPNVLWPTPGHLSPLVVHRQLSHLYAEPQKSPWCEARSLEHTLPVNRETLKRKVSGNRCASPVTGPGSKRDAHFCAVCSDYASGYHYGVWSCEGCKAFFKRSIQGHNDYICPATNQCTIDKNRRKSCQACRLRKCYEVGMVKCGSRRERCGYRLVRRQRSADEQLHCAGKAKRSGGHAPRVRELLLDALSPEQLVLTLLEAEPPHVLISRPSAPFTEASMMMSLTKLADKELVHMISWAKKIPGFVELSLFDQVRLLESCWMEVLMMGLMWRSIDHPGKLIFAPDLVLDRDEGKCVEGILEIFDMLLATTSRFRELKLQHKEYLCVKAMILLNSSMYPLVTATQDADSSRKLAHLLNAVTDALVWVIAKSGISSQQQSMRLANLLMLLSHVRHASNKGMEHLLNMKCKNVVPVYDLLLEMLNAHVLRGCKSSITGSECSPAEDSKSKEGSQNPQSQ

Take `CCN(CC)CCNC(=O)c1cc(Cl)c(N)cc1OC`: at Estrogen receptor beta, the IC50 is listed as > 50 µM (not active).

On to `Cc1cc(-c2ccccc2)cc(-c2ccccc2)[n+]1CCc1ccccc1.[O-][Cl+3]([O-])([O-])[O-]`, for which the EC50 is > 160 µM (inactive) in assay [1]; 2.98 µM (active) in assay [2]; < 0.1 µM (active) in [3]; > 60 µM (not active) in [4]; 0.07 µM (active) in the assay “cells [5]”. In addition, the AC50 in the assay on INS1 is < 0.195 µM (active).

Regarding `Nc1nc2nc(-c3cccs3)cc(C(F)(F)F)n2n1`, the IC50 on Aminopeptidase N was 61.4 µM (active). Moreover, the half-maximal effective concentration (EC50) in “cells [6]” and in “cells [7]” was > 350 µM (not active) each time.

Take `CCN(CC)CCCNC(=O)c1c(O)nc2c(c1O)CCCC2`: the EC50 in assay [8] was > 50 µM (active).

Turning to `Cc1ccc(S(=O)(=O)N(CC(=O)NCCC2=CCCCC2)Cc2ccccc2)cc1`, the IC50 at Coagulation factor XII is > 50 µM (inactive). For the same compound, the AC50 was 5.01 µM (active) in assay [9]; 41.1 µM (active) in assay [10]; 10.7 µM (active) in [11]; 7.25 µM (active) in assay [12]; 10.2 µM (active) in [13].

On to `COc1cccc(NC(=O)CN(C)C(C)C(=O)Nc2ccc(S(=O)(=O)N3CCOCC3)cc2)c1` (centres undefined), for which the EC50 in assay [8] is > 50 µM (active).

On to `COCCOC(=O)c1[nH]c2c(c1C)C(=O)CC(c1ccco1)C2` (centres undefined), for which the IC50 on Estrogen receptor was 19.5 µM (active).

Turning to `CN(C)c1ccc(C(=O)NN2C(=O)c3ccccc3C2=O)cc1`, the IC50 at Coagulation factor XII is > 50 µM (inactive).

As for `O=C(Nc1ccon1)C12CC3CC(C1)CC(n1cnc([N+](=O)[O-])n1)(C3)C2`, the values for the concentration giving a half-maximal response (EC50) (in assay [3]; in assay [4]; in the assay “cells [5]”) were < 0.1 µM (active), > 60 µM (not active) and 0.088 µM (active), respectively.

With `CN(C)C=O.Cc1ccc(-c2cc(-c3nnc(S)o3)c3ccccc3n2)cc1`, the IC50 on Aminopeptidase N was 35.5 µM (active).

For the compound `CC1CCN(C(=O)COc2ccc(Nc3ccccc3)cc2)CC1`, the EC50 in assay [8] was > 50 µM (active).

As for `CCCNC(=O)C1CCN(c2ccc(S(=O)(=O)N3CCOCC3)cc2Cl)CC1`, the EC50 in assay [8] is > 50 µM (active).

In the case of `COC(=O)c1sccc1NC(=O)/C=C/c1c(Cl)cccc1Cl`, the IC50 at Coagulation factor XII was > 50 µM (inactive).

Regarding `O=C(O)c1cc(-c2ccc(/C=N/Nc3ccc([N+](=O)[O-])cn3)o2)ccc1Cl`, the concentration for half-maximal inhibition (IC50) at Aminopeptidase N is 12.7 µM (active). In addition, the EC50 was 31 µM (active) in assay [14] and 6.29 µM (active) in assay [15].

With `C[C@]12CCC(O)CC1=CCC1C2CC[C@]2(C)/C(=N\NC(N)=S)CCC12` (some centres undefined), the EC50 in [3] is < 0.1 µM (active); in assay [4], > 60 µM (not active); in the assay “cells [5]”, 0.103 µM (active).

In the case of `Nc1[nH]n(-c2ccccc2)c(=O)c1/N=N/c1ccccc1[N+](=O)[O-]`, on Estrogen receptor beta, the IC50 is listed as > 50 µM (not active).
